Patent publication US5442077A, “Benzo[B]Furancarboxamide derivatives, process for the preparation of same and use thereof for improving hypermotility” (Sanwa Kagaku Kenkyusho Co., Ltd., priority 1993, dated 1995)
Structures can show the parent of a compound that is named as a salt.

Assays:
digestive tract = experiment: Action on Hypermotility of Digestive Tract (acceleration of gastric emptying, phenol red); type: in vivo; details: Rattus norvegicus, oral, rats fasted for 24 hours, phenol red 30 min after administration
Protocol: The compounds obtained by Examples 1, 2 and 5 as well as exemplar known compounds (Metocloplamide and Cysapride) were selected as Test Compounds, and an action of the compounds for accelerating gastric emptying was checked in accordance with the method described by Yokochi et al [" (which can be translated as --Bulletin of Pharmacological Society of Japan--)", Vol. 92, page 297 (1988 )].
Namely, the test compound was orally administered in an amount of 0.3, 1.0, 3.0 or 10 mg/kg to rats fasted for 24 hours, and after 30 minutes from the administration, a coloring matter in a constant amount (phenol red, 100 μg) was also orally administered.
Rate of gastric emptying=100-(B/A)×100
A: Dosing amount of coloring matter, and
B: Remaining amount of coloring matter.
Rate of acceleration=(C-D)×100
C: Rate of gastric emptying in Test Group, and
D: Rate of gastric emptying in Control Group given no Test Compound.

dopamine D2 receptor = experiment: Anti-Dopamine Action (general symptoms including catalepsy and blepharoptosis); type: in vivo, rat
Protocol: The compound was orally administered to rats in amount of 100, 300 or 1000 mg/kg to observe for 2 days general symptoms including catalepsy and blepharoptosis due to antagonistic action of the compound to dopamine D2 receptor.

5-HT4 receptor = molecular target: T1, 5-HT4 receptor (Rattus norvegicus, UniProt Q62758); experiment: Agonisting Action to 5-HT4 Receptor (relaxation of carbachol-treated oesophageal mucous membrane muscle sample); type: cell-based; details: negative logarithm of concentration causing 50% relaxation, rat esophagus
T1 construct: muscular sample of mucous membrane in esophgus exentrated from a rat; from tissue; host or cells: rat oesophagus, muscularis mucosae

[1] = oral, rats, observed for 2 days

T1 sequence (Q62758 whole entry): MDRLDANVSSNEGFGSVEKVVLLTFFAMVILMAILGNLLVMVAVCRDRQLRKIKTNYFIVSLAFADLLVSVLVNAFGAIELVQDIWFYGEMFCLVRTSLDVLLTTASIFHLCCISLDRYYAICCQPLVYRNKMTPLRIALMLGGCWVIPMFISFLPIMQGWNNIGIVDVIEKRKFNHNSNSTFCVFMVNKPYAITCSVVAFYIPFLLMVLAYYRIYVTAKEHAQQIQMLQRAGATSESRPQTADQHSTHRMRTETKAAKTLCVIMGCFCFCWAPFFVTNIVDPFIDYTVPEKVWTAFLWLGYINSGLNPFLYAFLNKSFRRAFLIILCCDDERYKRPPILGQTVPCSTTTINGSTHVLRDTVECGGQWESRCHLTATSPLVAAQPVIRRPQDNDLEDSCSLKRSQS

## Nc1c(Cl)cc(C(=O)NCCC23CCCN2CCC3)c2c1CCO2 [Example 1, 4-Amino-N-[2-(1-azabicyclo[3.3.0]octan-5-yl)ethyl]-5-chloro-2,3-dihydrobenzo[b]furan-7-carboxamide]
Digestive tract
  ED50: 2.15 mg/kg
Dopamine D2 receptor; [1]
  Influence on central nervous system, 1000 mg/kg: -
5-HT4 receptor
  EC50: 316 nM

## CC1Cc2c(N)ccc(C(=O)NCCC34CCCN3CCC4)c2O1 (centres unmarked) [Example 10, 4-Amino-N-[2-(1-azabicyclo[3.3.0]octan-5-yl)ethyl]-2-methyl-2,3-dihydrobenzo[b]furan-7-carboxamide]
5-HT4 receptor
  EC50: 1000 nM

## CC1Cc2c(N)c(Cl)cc(C(=O)NCCC34CCCN3CCC4)c2O1 (single isomer, unassigned; (+)) [Example 4, (+)-4-Amino-N-[2-(1-azabicyclo[3.3.0]octan-5-yl)ethyl]-5-chloro-2-methyl-2,3-dihydrobenzo[b]furan-7-carboxamide . 1/2 fumarate]
5-HT4 receptor
  EC50: 50.1 nM

## CC1(C)Cc2c(N)c(Cl)cc(C(=O)NCCC34CCCN3CCC4)c2O1 [Example 5, 4-Amino-N-[2-(1-azabicyclo[3.3.0]octan-5-yl)ethyl]-5-chloro-2,2-dimethyl-2,3-dihydrobenzo[b]furan-7-carboxamide]
Digestive tract
  ED50: 1.5 mg/kg
Dopamine D2 receptor; [1]
  Influence on central nervous system, 1000 mg/kg: -
5-HT4 receptor
  EC50: 316 nM

## CC1Oc2c(C(=O)NCCC34CCCN3CCC4)cc(Cl)c(N)c2C1C (centres unmarked) [Example 6, 4-Amino-N-[2-(1-azabicyclo[3.3.0]octan-5-yl)ethyl]-5-chloro-2,3-dimethyl-2,3-dihydrobenzo[b]furan-7-carboxamide]
5-HT4 receptor
  EC50: 12.6 nM

## CCC1Cc2c(N)c(Cl)cc(C(=O)NCCC34CCCN3CCC4)c2O1 (centres unmarked) [Example 7, 4-Amino-N-[2-(1-azabicyclo[3.3.0]octan-5-yl)ethyl]-5-chloro-2-ethyl-2,3-dihydrobenzo[b]furan-7-carboxamide]
5-HT4 receptor
  EC50: 20 nM

## CC(=O)Nc1c(Cl)cc(C(=O)NCCC23CCCN2CCC3)c2c1CC(C)O2 (centres unmarked) [Example 8, 4-Acetylamino-N-[2-(1-azabicyclo[3.3.0]octan-5-yl)ethyl]-5-chloro-2-methyl-2,3-dihydrobenzo[b]furan-7-carboxamide]
5-HT4 receptor
  EC50: 316 nM

## CC1Cc2c(N)c(Cl)cc(C(=O)NCCC34CCCN3CCC4)c2O1 (centres unmarked) [2 (*), 4-Amino-N-[2-(1-azabicyclo[3.3.0]octan-5-yl)ethyl]-5-chloro-2-methyl-2,3-dihydrobenzo[b]furan-7-carboxamide]
5-HT4 receptor
  EC50: 39.8 nM

## CC1Cc2cc(Cl)cc(C(=O)NCCC34CCCN3CCC4)c2O1 (centres unmarked) [Example 9, N-[2-(1-Azabicyclo[3.3.0]octan-5-yl)ethyl]-5-chloro-2-methyl-2,3-dihydrobenzo[b]furan-7-carboxamide]
5-HT4 receptor
  EC50: 100 nM

## CC1Cc2c(N)c(Cl)cc(C(=O)NCCC34CCCN3CCC4)c2O1 (single isomer, unassigned; (-)) [Example 3, (-)-4-Amino-N-[2-(1-azabicyclo[3.3.0]octan-5-yl)ethyl]-5-chloro-2-methyl-2,3-dihydrobenzo[b]furan-7-carboxamide . 1/2 fumarate]
5-HT4 receptor
  EC50: 20 nM

## COc1cc(N)c(Cl)cc1C(=O)NC1CCN(CCCOc2ccc(F)cc2)CC1OC (centres unmarked) [Cisapride, reference compound]
Digestive tract
  ED50: 6.37 mg/kg
Dopamine D2 receptor; [1]
  Influence on central nervous system, 1000 mg/kg: ++
5-HT4 receptor
  EC50: 39.8 nM

## CCN(CC)CCNC(=O)c1cc(Cl)c(N)cc1OC [Metoclopramide, 4-amino-5-chloro-N-[(2-diethylamino)ethyl]-2-methoxybenzamide, reference compound]
Digestive tract
  ED50: 16.3 mg/kg
Dopamine D2 receptor; rat, in vivo, po
  Influence on central nervous system, 100 mg/kg: ++

## CC1Cc2c(N)c(Cl)cc(C(=O)NCCC34CCCN3CCC4)c2O1 (centres unmarked) [Example 2, 4-Amino-N-[2-(1-azabicyclo[3.3.0]octan-5-yl)ethyl]-5-chloro-2-methyl-2,3-dihydrobenzo[b]furan-7-carboxamide]
Digestive tract
  ED50: 1.97 mg/kg
Dopamine D2 receptor; [1]
  Influence on central nervous system, 100 mg/kg: -
  Influence on central nervous system, 1000 mg/kg: -
Dopamine D2 receptor; oral, rats, 300 mg/kg, observed for 2 days
  Influence on central nervous system, 300 mg/kg: -
